Where two headings read alike, the source gives them in different places.
How the values were obtained:
[1] = Free energy of hydration by COSMO-RS
Procedure, shortened: (§1)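 The set is limited to molecules shared with the QM-parameterized force field calculations for the SMD, PCM and COSMO-RS models. SMD and PCM predictions came from an outside source, while COSMO solvation free energies were generated in-house with MolPro.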

[2] = Free energy of hydration by COSMO implicit solvent model (MolPro ver. 2012); conditions: absolute error vs Exp (hydration)
Procedure, shortened: as §1

[3] = implicit solvent model, values received; cited from earlier work
[4] = Table 5; free energy of hydration, GAFF prediction taken from literature; cited from earlier work
[5] = Table 5; free energy of hydration, AMOEBA prediction taken from literature; cited from earlier work
[6] = experimental, cited from earlier work; for Exp (hydration): Table 5
[7] = Free energy of hydration predicted by General Amber Force Field (GAFF), from literature; conditions: Table 5; error of GAFF hydration free energy vs experiment
[8] = implicit solvent model, values received; cited from earlier work; remark: listed apart in the source
[9] = Free energy of hydration by Free Energy Machine Learning Model (FML); conditions: absolute error vs Exp (hydration)
Source text: Machine learning models can be used for free energy determination.

[10] = Free energy of hydration predicted by polarizable AMOEBA force field, from literature; conditions: Table 5; error of AMOEBA hydration free energy vs experiment
[11] = Free energy of hydration by Solvation Model Dielectric (SMD) implicit solvent model; conditions: absolute error vs Exp (hydration)
Procedure, shortened: as §1

[12] = Free energy of hydration by Polarizable Continuum Model (PCM); conditions: absolute error vs Exp (hydration)
Procedure, shortened: as §1

[13] = Free energy of hydration predicted with the QM-parameterized force field model (ARROW FF), classical MD and PIMD simulation in a water box; conditions: for Arrow error: Table 5, error of Arrow PIMD8 hydration free energy vs experiment; for Arrow PIMD8 Error: absolute error vs Exp (hydration)
Procedure, shortened: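 Classical and PIMD runs (MTS integrator, MTTK barostat at 1 atm) followed minimization and 50 ps equilibration, with 1 ns NPT production per window. Fifteen unequally spaced lambda windows removed all solute-solvent interactions simultaneously in a 32 Å water box. Hydration free energy computed by Bennett acceptance ratio and thermodynamic integration.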

[14] = CHEX/H2O partition coefficient, experimental, cited from earlier work; for Exp (log D): Table 3; for logD Exp (logD): Table 4
[15] = experimental, cited from earlier work
[16] = CHEX/H2O partition coefficient (log D) predicted with the QM-parameterized force field model (ARROW FF)
Procedure, shortened: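 Cyclohexane/water partition coefficients were predicted by molecular simulation with a QM-parameterized force field, with bonded force constants and equilibrium values fitted to MP2/aug-cc-pVTZ energies. Solutes carried neutral functional groups, and results from four independent groups were averaged.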

[17] = Free energy of solvation in cyclohexane predicted with the QM-parameterized force field model (ARROW FF), MD and PIMD; conditions: Table 4; for CHEX Arrow MD Error: error of MD cyclohexane solvation free energy vs experiment; for CHEX Arrow PIMD4 Error: error of PIMD4 cyclohexane solvation free energy vs experiment
Procedure, shortened: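 Solute–cyclohexane interactions decoupled over 15 λ points with soft-core scaling, in MD and path-integral simulations under NPT at 1 atm using PME electrostatics and 9 Å cutoffs. Each window had 50 ps equilibration and 1 ns production; free energies from BAR and TI.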

[18] = Table 3, free energy of hydration
[19] = Table 3, absolute error of MD hydration free energy vs experiment
[20] = Table 3, absolute error of PIMD8 hydration free energy vs experiment
[21] = Table 3, free energy of solvation in cyclohexane
[22] = Table 3, absolute error of MD log D vs experiment
[23] = Table 3, absolute error of PIMD log D vs experiment
[24] = Table 4, neutral amino-acid analogues
[25] = Table 4, solvation free energy in cyclohexane
[26] = Table 4, error of MD hydration free energy vs experiment
[27] = Table 4, error of PIMD8 hydration free energy vs experiment

Structure (SMILES)	COSMO-RS error [1] [kcal/mol]	COSMO/Molpro Error [2] [kcal/mol]	PCM free energy of hydration [3] [kcal/mol]	GAFF [4] [kcal/mol]	AMOEBA [5] [kcal/mol]	water Exp (hydration) [6, 18] [kcal/mol]	Exp (hydration) ([6]; free energy of hydration) [kcal/mol]	GAFF error [7] [kcal/mol]	SMD free energy of hydration [8] [kcal/mol]	FML error [9] [kcal/mol]	AMOEBA error [10] [kcal/mol]	SMD Error [11] [kcal/mol]	PCM Error [12] [kcal/mol]	water Arrow MD Error [13, 19] [kcal/mol]	water Arrow PIMD8 Error [13, 20] [kcal/mol]	Arrow error [13] [kcal/mol]	Arrow PIMD8 Error [13] [kcal/mol]	Exp (log D) [14]	CHEX Exp (solvation) [15, 21] [kcal/mol]	also measured
CC [Ethane]	0.02	2.19	-0.10	2.58	1.73	1.79	1.79	0.79	1.80	0.85	0.06	0.01	1.89	0.42	0.12	0.12	0.12	–	–	–
CC(C)=O [Acetone]	0.90	4.55	-4.20	–	–	-3.80	–	–	-4.10	0.34	–	0.30	0.40	0.33	0.31	–	0.31	−0.83	-2.67	log D Arrow MD Error [16, 22]: 0.01; log D Arrow PIMD Error [16, 23]: 0.31
CCC(=O)CC [3-Pentanone]	0.06	3.33	-3.70	–	–	-3.41	–	–	-3.50	0.16	–	0.09	0.29	0.88	0.23	–	0.23	0.65	-4.30	log D Arrow MD Error [16]: 0.32; log D Arrow PIMD Error [16]: 0.02
c1cc[nH]c1 [Pyrrole]	0.96	2.42	–	-3.87	-3.80	-4.8	-4.80	0.93	–	2.22	1.00	–	–	0.08	0.63	0.63	0.63	–	–	–
CCCCC(C)=O [hexa2none]	0.17	4.43	-4.00	–	–	-3.28	–	–	-3.50	0.07	–	0.22	0.72	0.69	0.20	–	0.20	1.09	-4.77	log D Arrow MD Error [16, 22]: 0.07; log D Arrow PIMD Error [16, 23]: 0.11
CCCC(C)=O [2-Pentanone]	0.07	4.22	-4.00	–	–	-3.52	–	–	-3.70	0.29	–	0.18	0.48	0.67	0.01	–	0.01	0.49	-4.19	log D Arrow MD Error [16]: 0.22; log D Arrow PIMD Error [16]: 0.20
CNC(C)=O [N-Methylacetamide]	0.27	3.10	-6.60	-8.39	-8.66	-10	-10.00	1.61	-8.60	1.89	1.34	1.40	3.40	1.52	0.49	0.49	0.49	–	–	–
CCC(N)=O [propionamide]	–	3.50	–	–	–	-9.4	–	–	–	2.21	–	–	–	1.21	0.17	–	0.17	–	–	water Exp (hydration) [6, 24]: -9.4 kcal/mol; logD Exp (logD) [14]: −4.13; CHEX Arrow MD Error [17]: 0.48 kcal/mol; CHEX Arrow PIMD4 Error [17]: 0.34 kcal/mol; CHEX Exp (solvation) [15, 25]: -3.77 kcal/mol; logD Arrow MD Error ([16]; Table 4, error of MD logD vs experiment): 0.54; logD Arrow PIMD Error ([16]; Table 4, error of PIMD logD vs experiment): 0.12; water Arrow MD Error [13, 26]: 1.21 kcal/mol; water Arrow PIMD8 Error [13, 27]: 0.17 kcal/mol
CCC=O [propionaldehyde]	0.26	4.76	–	-3.41	-3.08	–	–	0.02	–	0.05	0.35	0.33	0.17	0.30	0.25	0.45	0.25	–	–	–
CCCCCCCCO [Octanol]	0.18	2.57	-3.30	-5.20	-2.65	-4.09	-4.09	1.11	-3.40	0.02	1.44	0.69	0.79	1.40	0.22	0.22	0.22	–	–	–
CC(C)C [Isobutane]	0.14	2.28	-0.20	–	–	2.28	–	–	2.00	0.12	–	0.28	2.48	0.93	0.02	–	0.02	3.59	-2.61	water Exp (hydration) [6, 24]: 2.28 kcal/mol; logD Exp (logD) [14]: 3.59; CHEX Arrow MD Error [17]: 0.33 kcal/mol; CHEX Arrow PIMD4 Error [17]: 0.10 kcal/mol; CHEX Exp (solvation) [15, 25]: -2.61 kcal/mol; log D Arrow MD Error [16]: 0.44; log D Arrow PIMD Error [16]: 0.06; logD Arrow MD Error [16]: 0.44; logD Arrow PIMD Error [16]: 0.06; water Arrow MD Error [13, 26]: 0.93 kcal/mol; water Arrow PIMD8 Error [13, 27]: 0.02 kcal/mol
